Consider five compounds from patent US7189849B2, “Synthesis of acyclic nucleoside derivatives” (Medivir AB, priority 1997, dated 2007).

A short description of series [1]: Bioavailability testing in rats (24 h urinary H2G recovery). In kind it is in vivo. How it is done:
The bioavailability of compounds of the invention were compared to the parent compound H2G and other H2G derivatives in a rat model. Compounds of the invention and comparative compounds were administered, per oral (by catheter into the stomach), to multiples of three individually weighed animals to give 0.1 mmol/kg of the dissolved prodrug in an aqueous (Example 4, 5, Comparative example 1–3, 5, 8), peanut oil (Comparative examples 4, 9, 10) or propylene glycol (Example 1–3, 6–12, 17, Comparative example 6, 7) vehicle dependent on the solubility of the test compound ingredient. The animals were fasted from 5 hours before to approximately 17 hours after administration and were maintained in metabolic cages. Urine was collected for the 24 hours following administration and frozen until analysis. H2G was analysed in the urine using the HPLC/UV assay of Stahle & Oberg, Antimicrob Agents Chemother. 36 No 2, 339–342 (1992), modified as follows: samples upon thawing are diluted 1:100 in aq dist H2O and filtered through an amicon filter with centrifugation at 3000 rpm for 10 minutes. Duplicate 30 μl samples are chromatographed on an HPLC column; Zorbax SB-C18; 75×4.6 mm; 3.5 micron; Mobile phase 0.05M NH4PO4, 3–4% methanol, pH 3.3–3.5; 0.5 ml/min; 254 nm, retention time for H2G at MeOH 4% and pH 3.33, ˜12.5 min. Bioavailability is calculated as the measured H2G recovery from each animal averaged over at least three animals and expressed as a percentage of the averaged 24 hour urinary H2G recovery from a group of 4 individually weighed rats respectively injected i.v. jugularis with 0.1 mmol/kg H2G in a Ringer's buffer vehicle and analysed as above.
Comparative example 1 (H2G) was from the same batch as used for preparation of Examples 1 to 12. The preparation of Comparative example 2 (monoVal-H2G) and 3 (diVal-H2G) are shown in Examples 20 and 23. […] Comparative examples 5 & 8 (Val/Ac H2G) were prepared analogously to Example 4 using acetic anhydride with relevant monovaline H2G. Comparative example 6 (Ala/stearoyl H2G) was prepared analogously to Example 6 using N-t-Boc-L-alanine in step 4. Comparative example 7 (Gly/decanoyl) was prepared analogously to Example 5 but using the step a) intermediate made with N-t-Boc-L-glycine. The preparation of Comparative examples 9 and 10 is shown in Examples 24 and 25 respectively.

A short description of series [2]: Plasma concentration assay in rats (H2G AUC oral vs i.v.). In kind it is in vivo, male Sprague Dawley derived rats. Particulars: Table 1B; plasma drug assay in rats, 10 mg/kg oral in propylene glycol, H2G AUC vs 10 mg/kg i.v. H2G. How it is done:
A plasma concentration assay was done in male Sprague Dawley derived rats. The animals were fasted overnight prior to dosing but were permitted free access to water. Each of the compounds evaluated was prepared as a solution/suspension in propylene glycol at a concentration corresponding to 10 mg H2G/ml and shaken at room temperature for eight hours. Groups of rats (at least 4 rats in each group) received a 10 mg/kg (1 ml/kg) oral dose of each of the compounds; the dose was administered by gavage. At selected time points after dosing (0.25, 0.5, 1, 1.5, 2, 4, 6, 9, 12, 15, and 24 hours after dosing), heparinized blood samples (0.4 ml/sample) were obtained from a tail vein of each animal. The blood samples were immediately chilled in an ice bath. Within two hours of collection, the plasma was separated from the red cells by centrifugation and frozen till analysis. The components of interest were separated from the plasma proteins using acetonitrile precipitation. Following lyophilisation, and reconstitution, the plasma concentrations were determined by reverse phase HPLC with fluorescence detection. The oral uptake of H2G and other test compounds was determined by comparison of the H2G area under the curve derived from the oral dose compared to that obtained from a 10 mg/kg intravenous dose of H2G, administered to a separate group of rats. The results are depicted in Table 1B above.

Series [3] concerns Herpes simplex virus-1 (HSV-1). Kind of series: Antiviral activity in HSV-1-infected mouse (survival). In kind it is in vivo, mice. The note with it: 21 and 83 mg/kg three times daily p.o. for 5 days, relative to an equivalent dose of acyclovir. How it is done: Herpes simplex virus-1 (HSV-1)-infected mouse serves as an animal model to determine the efficacy of antiviral agents in vivo. Mice inoculated intraperitoneally with HSV-1 at 1000 times the LD50 were administered either with a formulation comprising the currently marketed anti-herpes agent acyclovir (21 and 83 mg/kg in a 2% propylene glycol in sterile water vehicle, three times daily, p.o.) or the compound of Example 29 (21 and 83 mg/kg in a 2% propylene glycol in sterile water vehicle, three times daily, p.o.) for 5 consecutive days beginning 5 hours after inoculation. The animals were assessed daily for deaths. […] In the legend, the compound of the invention is denoted Ex.29 and acyclovir is denoted ACV.

Setting [4] is: Table 2, rats, 0.1 mmol/kg per oral, 24 hour urinary H2G recovery as percentage of that after 0.1 mmol/kg H2G i.v.

In series [1] (setting [4]), `CCCCCCCCCCCCCCCCCC(=O)OCC[C@@H](CO)Cn1cnc2c(=O)[nH]c(N)nc21` [Comparative Example 10] returned a Bioavailability of 7%. With `Nc1nc2c(ncn2CC(CO)CCO)c(=O)[nH]1` (stereo not shown) [Comparative example 1, 9-[4-hydroxy-(2-hydroxymethyl)butyl]guanine, reference compound], the Bioavailability in series [2] was found to be 3.8%; in series [1] (Table 1A, urinary recovery assay of H2G from rats, oral, see Biological Example 1), 8%; in series [1] (setting [4]) it was 8%. Compound `CCCCCCCCCCCCCCCCCC(=O)OC[C@H](CCOC(=O)[C@@H](N)[C@@H](C)CC)Cn1cnc2c(=O)[nH]c(N)nc21` [Example 7] had a Bioavailability in series [1] (setting [4]) of 53%. On the same count and under the same terms, under `CC(=O)CCCC(=O)OC[C@H](CCOC(=O)[C@@H](N)C(C)C)Cn1cnc2c(=O)[nH]c(N)nc21` [Example 10] stands 52%. In the case of `CCCCCCCCCCCCCCCCCC(=O)OC[C@H](CCOC(=O)[C@@H](N)C(C)C)Cn1cnc2c(=O)[nH]c(N)nc21.Cl` [Example 29, (R)-9-[(2-stearoyloxymethyl)-4-(L-valyloxy)butyl]guanine monohydrochloride], the “percentage of mice surviving the HSV-1 infection (FIG. 2)” value in series [3] is reported as “significantly greater”.
